The subject of assay [1] is passive cutaneous anaphylaxis (PCA). Nature of the assay: Inhibitory effect on passive cutaneous anaphylaxis (PCA) in rats. Conditions: Rattus norvegicus; 20 mg/kg, oral, 1 hour before antigen challenge; read-out: Inhibition (PCA in rats). The format is in vivo, rat (male Wistar). As to the method: (1) Inhibitory effect on passive cutaneous anaphylaxis (PCA) in rats:
This test was carried out by the method of Perper et al. [cf.
Male Wistar rats (130-180 g) were injected with 0.1 ml of a dilute solution of mouse antiserum to egg albumin in two sites of the shaved ventral skin. Forty-eight hours later each rat was challenged by an intravenous injection of 2 mg of the antigen together with 1 ml of a 0.5% Evan's blue saline solution. The rats were sacrificed 30 minutes after the challenge. The area of the blueing lesions was measured on the undersurface of the skin. The average value of the two lesions of each rat was regarded as the response of the rat. Test compounds in a dose of 20 mg/kg, dissolved or suspended in a 0.5% aqueous tragacanth solution, were administered orally 1 hour before the antigen challenge. The inhibitory rate was determined by comparing the responses of the rats given each test compound with those of the rats given only a 0.5% aqueous tragacanth solution. Each group of 3 rats was used for each test compound. The mouse antiserum to egg albumin was produced by the method of Levine and Vaz [cf. Int. Arch. Allergy Appl.

In assay [2] the test system is histamine-induced contraction of isolated guinea pig trachea. Nature of the assay: Inhibitory effect on histamine-induced contraction of isolated guinea pig trachea. Also on record: species or system guinea pig (male Hartley). As for the experimental part: (2) Inhibitory effect on histamine-induced contraction of isolated guinea pig trachea:
Male Hartley guinea pigs (400-700 g) were used. Zig-zag strips of guinea pig trachea were prepared by the method of Emmerson and Mackay [cf. J. Pharm. […] Dose-response curves for histamine were obtained before and 5 minutes after the addition of test compounds. Inhibitory rate was calculated from contraction heights in 3×10^-5 M of histamine without vs. with test compound.

Another assay has as its system experimental asthma. Nature of the assay: Inhibitory effect on experimental asthma in rats. The format is in vivo, rat (male Wistar). Conditions: Rattus norvegicus, po, 1 hour before antigen challenge. As for the experimental part: (2) Inhibitory effect on experimental asthma in rats: This test was carried out by the method of Church and Miller [cf. Brit. […] Male Wistar rats (200-250 g) were sensitized by an intraperitoneal injection of 1 ml of a 0.01% egg albumin solution containing 1 mg of Al(OH)3. Two weeks later, the rats were anesthetized with 1.3 g/kg of urethane. The trachea and jugular vein were cannulated. Respiratory volume and velocity were measured by attaching one end of the tracheal cannula to respiratory volume meter connected to a carrier amplifier and an integrator. The rats were challenged by an intravenous injection of 4 mg/kg of egg ablumin 30 minutes after the anesthesia. Test compounds, dissolved or suspended in a 0.5% aqueous tragacanth solution, were administered orally 1 hour before the antigen challenge. Each group of 4 rats was used for each dose of the test compound. ED50 values were calculated from the best fit linear regression line of inhibitory rates of respiratory volume and velocity in each dose.

Another assay has as its target T1, 5-lipoxygenase (Cavia porcellus, UniProt A0A286X958).
T1 construct: The cytosol fraction of peritoneal exudate cells from male Hartley guinea pigs (400-700 g) was used as 5-lipoxygenase; from tissue; host or cells: cytosol fraction of peritoneal exudate cells (leukocytes) of male Hartley guinea pigs
T1 sequence (A0A286X958 1-674): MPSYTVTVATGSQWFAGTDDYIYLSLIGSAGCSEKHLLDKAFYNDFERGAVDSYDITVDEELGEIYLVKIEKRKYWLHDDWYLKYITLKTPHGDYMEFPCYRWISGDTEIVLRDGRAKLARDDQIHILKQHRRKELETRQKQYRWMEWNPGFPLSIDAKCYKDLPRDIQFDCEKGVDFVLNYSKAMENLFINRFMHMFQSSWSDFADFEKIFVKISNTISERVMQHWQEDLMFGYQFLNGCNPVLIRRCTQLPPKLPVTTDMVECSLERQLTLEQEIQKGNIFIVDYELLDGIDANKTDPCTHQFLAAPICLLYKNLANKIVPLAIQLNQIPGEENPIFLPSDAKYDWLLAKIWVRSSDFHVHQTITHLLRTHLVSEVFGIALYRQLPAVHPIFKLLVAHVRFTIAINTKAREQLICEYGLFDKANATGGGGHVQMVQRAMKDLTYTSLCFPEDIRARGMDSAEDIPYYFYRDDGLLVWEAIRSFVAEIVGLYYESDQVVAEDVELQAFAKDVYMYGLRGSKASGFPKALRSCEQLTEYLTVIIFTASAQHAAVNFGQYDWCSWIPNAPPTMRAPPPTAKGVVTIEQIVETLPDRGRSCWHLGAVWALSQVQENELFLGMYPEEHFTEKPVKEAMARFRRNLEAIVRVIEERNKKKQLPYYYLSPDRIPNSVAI
Nature of the assay: Inhibitory effect on 5-lipoxygenase activity in guinea pig leukocytes. The format is biochemical, guinea pig (male Hartley). Conditions: 10^-5 M; read-out: 5-Lipoxygenase inhibit. activity, Inhibition. As for the experimental part: (1) Inhibitory effect on 5-lipoxygenase activity in guinea pig leukocytes:
This test was carried out by the method of Miyamoto and Obata (cf. "Perspectives in Prostaglandin Research," ed. by Y. Shiokawa et al., Excepta Medica, Amsterdam-Oxford-Princeton, 1983, p78) with minor modifications.
The cytosol fraction of peritoneal exudate cells from male Hartley guinea pigs (400-700 g) was used as 5-lipoxygenase. The standard reaction mixture contained 50 mM potassium phosphate buffer, 1 mM CaCl2, 1 mM glutathione, 1 mM adenosine triphosphoric acid, 10 μM indomethacin and the enzyme. The mixture was incubated for 5 minutes at 30° C. after addition of [1-^14 C]arachidonic acid (0.02 μCi). The reaction was terminated by addition of 0.6 ml of the cold organic solvents (diethyl ether/methanol/0.2M citric acid=30/4/1). The organic layer (300 μl) was applied onto a precoated silica gel 60F254 glass plate (E. Merck, West Germany). Radioactivity on the plate was monitored by a radiochromatogram scanner (Packard, U.S.A.). 5-Lipoxygenase activity was calculated according to the following equation. [formula]
The effects of the test compounds were expressed in terms of percent inhibition.

The subject of assay [3] is contact hypersensitivity to oxazolone. Nature of the assay: Inhibitory effect on contact hypersensitivity to oxazolone in mice. The format is in vivo, mouse (male ICR). Conditions: topical, 0.3 mg/ear; 24 hours after challenge. As to the method: (3) Inhibitory effect on contact hypersensitivity to oxazolone in mice:
This test was carried out by the method of Evans et al. [cf. Brit.
Male ICR mice (18-20 g) were used. The abdominal region of the mice was carefully clipped with an electric clipper, and 0.1 ml of a 0.5 w/v % oxazolone solution in absolute ethanol was gently rubbed into the clipped area. Five days after the sensitization 20 μl of a 0.5 w/v % oxazolone solution in acetone or chloroform, or the solution containing test compound was applied to both sides of the right ear. The left ear was not treated. Twenty-four hours after the challenge, the animals were sacrificed with diethyl ether. The circular parts (5.5 mm in diameter) of both ears were removed by punching and then weighed. The inhibitory rate was determined by comparing the ear swelling of the mice treated with oxazolone containing test compound with that of the mice treated with oxazolone. Each group of 8 mice was used for each dose of the test compound.

Like-named read-outs stand apart in the source and are kept apart here.

Take `O=C(C=Cc1cccnc1)NCCCCN1CCN(C(c2ccccc2)c2ccccc2)CC1` [Example 1, N-[3-(3-pyridyl)acryloyl]-4-(4-diphenylmethyl-1-piperazinyl)butylamine]: in assay [1], the inhibition in vivo at 20 mg/kg stood at 62.3%. Further, the concentration for half-maximal inhibition (IC50) (commonly the point on the concentration scale where inhibition reaches its midpoint) in assay [2] (3×10^-5 M histamine, isolated guinea pig trachea, read-out: Anti-hist. activity IC50) is 960 nM. Besides, the “antihistamine activity (in words)” value in assay [2] (compared with ketotifen fumarate) is reported as “potent antihistamine activity, though fairly inferior to that of ketotifen fumarate”. Also, the ED50 (in general, the midpoint of the dose-response relation) in the assay with experimental asthma (respiratory velocity, read-out: ED50, respiratory velocity) is 14.1 mg/kg; with experimental asthma (respiratory volume, read-out: ED50, respiratory volume), 13.3 mg/kg.
Take `O=C(C=Cc1cncc(F)c1)NCCCCN1CCN(C(c2ccccc2)c2ccccc2)CC1` [Example 3, N-[3-(5-fluoro-3-pyridyl)acryloyl]-4-(4-diphenylmethyl-1-piperazinyl)butylamine]: the inhibition in vivo at 20 mg/kg in assay [1] came out at 65%.
The same measure, in the same setting: next, `CC/C(=C\c1cccnc1)C(=O)NCCCCN1CCN(C(c2ccccc2)c2ccccc2)CC1` [Example 5, N-[3-(3-pyridyl)-2-ethylacryloyl]-4-(4-diphenylmethyl-1-piperazinyl)butylamine sesquifumarate]: 67.8%; `O=C(C=Cc1cccnc1)NCCCCN1CCCN(C(c2ccccc2)c2ccccc2)CC1` [Example 6, N-[3-(3-pyridyl)acryloyl]-4-(4-diphenylmethyl-1-homopiperazinyl)butylamine1/4 hydrate]: 70%.
`O=C(C=Cc1ccccn1)NCCCCN1CCN(C(c2ccccc2)c2ccccc2)CC1` [Example 11]: the inhibition (as a rule, how much of the control response was suppressed) at 10 µM on 5-lipoxygenase is 59.6%.
On to `Cc1ccc(C=CC(=O)NCCCCCN2CCN(C(c3ccccc3)c3ccccc3)CC2)cn1` [Example 15], for which the inhibition at 10 µM at 5-lipoxygenase stood at 48.6%.
In the case of `Cc1ccc(O)c(C=CC(=O)NCCCCN2CCN(C(c3ccccc3)c3ccccc3)CC2)n1` [Example 20], at 5-lipoxygenase, the inhibition at 10 µM worked out at 68.6%.
Same read-out and setting: the same measure for `COc1ccc(C=CC(=O)NCCCCN2CCN(C(c3ccccc3)c3ccccc3)CC2)cn1` [Example 25]: 66.2%.
Turning to `O=C(C=Cc1ccc(Oc2cccc(F)c2)nc1)NCCCCN1CCN(C(c2ccccc2)c2ccccc2)CC1` [Example 29], the inhibition in vivo at 20 mg/kg in assay [1] is 60.7%.
For `O=C(C=Cc1ccc(Cl)nc1)NCCCCN1CCN(C(c2ccccc2)c2ccccc2)CC1` [Example 37], the inhibition at 10 µM at 5-lipoxygenase worked out at 54.6%.
Regarding `Cc1ncc(C=CC(=O)NCCCCN2CCN(C(c3ccccc3)c3ccccc3)CC2)c(CO)c1O` [Example 38, N-[3-(5-hydroxy-4-hydroxymethyl-6-methyl-3-pyridyl)acryloyl]-4-(4-diphenylmethyl-1-piperazinyl)butylamine], the inhibition at 10 µM on 5-lipoxygenase amounted to 72.7%. For the same compound, the “% Inhibition of ear swelling” value in assay [3] was determined as 83.8%.
On to `O=C(C=Cc1ccc(O)nc1)NCCCCN1CCN(C(c2ccccc2)c2ccccc2)CC1` [Example 44], for which, on 5-lipoxygenase, the inhibition at 10 µM was 45.5%.
In the case of `O=C(C=Cc1cncc(Cl)c1)NCCCCN1CCN(C(c2ccccc2)c2ccccc2)CC1` [Example 47], the inhibition in vivo at 20 mg/kg in assay [1] came to 66.4%.
As to `Cc1ccc(C(c2ccccc2)N2CCN(CCCCNC(=O)C=Cc3ccc(C)nc3)CC2)cc1` (centres unmarked) [Example 48], the inhibition in vivo at 20 mg/kg in assay [1] is 73.9%.
`Cc1ccc(C=CC(=O)NCCCCN2CCN(C(c3ccccc3)c3ccccc3)CC2)c(C)n1` [Example 50]: the inhibition in vivo at 20 mg/kg in assay [1] came to 66.8%. Besides, on 5-lipoxygenase, the inhibition at 10 µM was found to be 61.2%.
For `Cc1ncccc1C=CC(=O)NCCCCN1CCN(C(c2ccccc2)c2ccccc2)CC1` [Example 53], the inhibition in vivo at 20 mg/kg in assay [1] stood at 68.8%.
Consider `Cc1ccc(C(c2ccccc2)N2CCN(CCCCNC(=O)C=Cc3cccnc3)CC2)cc1` (centres unmarked) [Example 58], for which the inhibition in vivo at 20 mg/kg in assay [1] was 82.9%.
On to `O=C(C=Cc1cccnc1)NCCCCN1CCN(C(c2ccc(F)cc2)c2ccc(F)cc2)CC1` [Example 62], for which the inhibition in vivo at 20 mg/kg in assay [1] amounted to 56.1%.
The same measure, in the same setting: next, `O=C(C=Cc1cccnc1)NCCCCN1CCN(C(c2ccccc2)c2ccc(Br)cc2)CC1` (centres unmarked) [Example 64]: 55.8%.
As for `C/C(=C\c1cccnc1)C(=O)NCCCCN1CCN(C(c2ccccc2)c2ccccc2)CC1` [Example 76], the inhibition in vivo at 20 mg/kg in assay [1] is 78.9%. Moreover, on 5-lipoxygenase, the inhibition at 10 µM was 43.5%. Further, the “% Inhibition of ear swelling” value in assay [3] worked out at 65.8%.
Consider `C/C(=C\c1ccc(C)nc1)C(=O)NCCCCN1CCN(C(c2ccccc2)c2ccccc2)CC1` [Example 77], for which the inhibition in vivo at 20 mg/kg in assay [1] was 58.2%.
Same read-out and setting: the same measure for `O=C(NCCCCN1CCN(C(c2ccccc2)c2ccccc2)CC1)/C(=C/c1cccnc1)c1ccccc1` [Example 79]: 58%.
With `O=C(C=CC=Cc1cccnc1)NCCCN1CCN(C(c2ccccc2)c2ccccc2)CC1` [Example 84], the inhibition at 10 µM on 5-lipoxygenase is 60.3%.
For the compound `O=C(C=CC=Cc1cccnc1)NCCCCN1CCN(C(c2ccccc2)c2ccccc2)CC1` [Example 85], the inhibition in vivo at 20 mg/kg in assay [1] is 66.4%.
In the case of `Cc1ccc(C=CC=CC(=O)NCCCCN2CCN(C(c3ccccc3)c3ccccc3)CC2)cn1` [Example 87], in assay [1], the inhibition in vivo at 20 mg/kg was determined as 68.8%.
With `O=C(C=Cc1cccnc1)NCC=CCN1CCN(C(c2ccccc2)c2ccccc2)CC1` [Example 90, N-[3-(3-pyridyl)acryloyl]-4-(4-diphenylmethyl-1-piperazinyl)-2-butenylamin], the inhibition in vivo at 20 mg/kg in assay [1] was determined as 83.3%. The “% Inhibition of ear swelling” value in assay [3] came to 46.3%.

(Values after patent US4778796A, “ω-(3-pyridyl)alkenamide derivatives and anti-allergenic pharmaceutical compositions containing same” (Dainippon Pharmaceutical Co., Ltd., priority 1985, dated 1988).)
